The values below come from US20080021069A1, “Receptor Function Regulating Agent” (TAKEDA PHARMACEUTICAL COMPANY LIMITED, priority 2004, published 2008).

In general, IC50 refers to the concentration at which inhibition is half-maximal. A word on the melting point: it is the temperature of the solid-liquid transition.

Series [1] relates to rat pancreatic islet. Put plainly: Insulin secretion suppressive activity using rat pancreatic islet (palmitic acid stimulation). The series is classed as cell-based. To be noted: glucose 16 mM, compound 10 μM, 30 min, mean ± SD (n = 4). As for the experimental part: The effect of the compound of the present invention on the insulin secretion from the rat pancreatic islet, which is induced by palmitic acid stimulation, was evaluated.
Male SD rats (7-week-old, Clea Japan, Inc.) were anesthetized with Nembutal (50 mg/kg, i.p.) and subjected to laparotomy. While confirming and following the course of the common bile duct to the peripheral thereof, and the duct was ligated at the liver side immediately from the opening of the duodenum. Then, the common bile duct was detached from the surrounding tissue on the duodenum side from the hepatic duct bifurcation and a thread was placed thereon. An indwelling needle (22G, manufactured by TERUMO CORPORATION) was inserted into the common bile duct at a position on the liver side from this part and fixed by ligation with the thread placed earlier thereon. 10 ml of 150 mg/ml collagenase (manufactured by Wako Pure Chemical Industries, Ltd., for cell dispersion)-Hank's Balanced Salt Solution (HBSS, manufactured by Invitrogen)-1% Bovine Serum Albumin (BSA, manufactured by Wako Pure Chemical Industries, Ltd.) −0.01 mg/ml DnaseI (manufactured by Roche Molecular Biochemicals)-2.5% N-2-Hydroxyethylpiperazine-N′-2-Ethane Sulfonic Acid (HEPES, manufactured by Invitrogen) was injected from the common bile duct. […]

In series [2] the target is T1, human GPR40 (Homo sapiens, UniProt O14842).
T1 construct: expressed in transfected cells; host or cells: CHO(dhfr-) cells: line CHO-hGPR40 No. 104 of WO2004/041266, with a stably expressed NFAT-TA-Luc reporter (CHO(dhfr-)/GPR40-NFAT-Luc)
T1 sequence (O14842 whole entry): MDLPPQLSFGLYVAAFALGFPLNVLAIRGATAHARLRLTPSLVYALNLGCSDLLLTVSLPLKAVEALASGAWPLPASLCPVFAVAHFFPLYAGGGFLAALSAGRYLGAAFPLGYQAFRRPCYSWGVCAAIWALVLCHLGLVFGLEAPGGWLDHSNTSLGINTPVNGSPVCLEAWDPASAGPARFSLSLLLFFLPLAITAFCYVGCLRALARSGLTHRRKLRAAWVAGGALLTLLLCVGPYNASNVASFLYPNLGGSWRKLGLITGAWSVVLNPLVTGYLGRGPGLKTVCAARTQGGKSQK
The series is described as follows: GPR40 antagonist activity with changes in intracellular calcium concentration as index (NFAT-luciferase reporter, CHO(dhfr-)/GPR40-NFAT-Luc cells). To be noted: CHO cell line expressing human GPR40, NFAT-Luc reporter; GPR40 agonist 3-(4-((6-benzyloxy-2',6'-dimethyl-biphenyl-3-yl)methoxy)phenyl)propanoic acid 40 nM; 4 hr culture; 0.1% fatty acid-free BSA. The series is classed as cell-based. A general note: A change in cytosolic calcium serves as a functional read-out for many receptors and channels.

Some results are limits rather than exact numbers.

As to `CCOc1ccc(-n2c(SCc3ccc(Cl)cc3)nc3ccc(Cl)cc32)cc1` [Example 10, 6-chloro-2-[(4-chlorobenzyl)thio]-1-(4-ethoxyphenyl)-1H-benzimidazole], the melting point is 129 to 130 °C. Also, the insulin secretion amount in series [1] (palmitic acid 0 mM) was found to be 353 ± 122 pg/ng DNA. This molecule also showed an insulin secretion amount in series [1] (palmitic acid 1 mM) of 369 ± 141 pg/ng DNA. Moreover, in series [2], the IC50 was under 100 nM.
